Experimental data reported in patent publication US6107291A, “Azepine or larger medium ring derivatives and methods of use” (Amgen Inc., priority 1998, dated 2000).

Columns and labels:
[1] = biological target: Human neutrophil collagenase (HNC) (Homo sapiens, UniProt P22894); test: Human Neutrophil Collagenase Assay (fluorogenic peptide substrate); format: biochemical
Experimental: Human neutrophil collagenase (HNC) activity is determined by using fluorogenic peptide substrate Dnp-Pro-b-Cyclohexyl-Ala-Gly-Cys (Me)-His-Ala-Lys-(N-methylanthranilic acid)-NH2. The N-terminus Dnp group and the C-terminus N-methyl-anthranilyl moiety (Nma) are fluorescence self-quenching until the peptide is cleaved at the Gly-Cys(me) bond. The fluorescence from the cleavage products is measured on a Bio-Tek Instrument FL500 fluorescence micro-plate reader (excitation at 360 nm, emission at 460 nm). […] The test compounds (at 100, 33 & 10 mM) are compared for their inhibition of HNC activity on the substrate against the activity of Actinonin and Ki's were determined on selected compounds.

[2] = biological target: Human fibroblast stromelysin (HFS) (Homo sapiens, UniProt P08254); test: Human Fibroblast Stromelysin Assay (fluorogenic peptide substrate); format: biochemical
Chain of Human fibroblast stromelysin (HFS) (P08254 100-477): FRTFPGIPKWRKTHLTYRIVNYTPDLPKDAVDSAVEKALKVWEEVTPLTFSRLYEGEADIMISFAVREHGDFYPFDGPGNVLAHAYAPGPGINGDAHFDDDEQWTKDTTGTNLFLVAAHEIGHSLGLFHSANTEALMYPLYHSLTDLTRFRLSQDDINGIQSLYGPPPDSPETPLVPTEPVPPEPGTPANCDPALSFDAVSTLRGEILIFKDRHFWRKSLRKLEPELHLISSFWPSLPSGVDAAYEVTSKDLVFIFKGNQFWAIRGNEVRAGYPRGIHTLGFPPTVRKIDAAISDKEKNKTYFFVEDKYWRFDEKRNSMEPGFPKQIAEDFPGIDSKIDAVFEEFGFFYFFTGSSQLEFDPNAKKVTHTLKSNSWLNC
Experimental: Human fibroblast stromelysin (HFS) activity is determined by using fluorogenic peptide substrate Dnp-Pro-b-Cyclohexyl-Ala-Gly-Cys(Me)-His-Ala-Lys-(N-methylanthranilic acid)-NH2. The N-terminus Dnp group and the C-terminus N-methyl-anthranilyl moiety (Nma) are fluorescence self-quenching until the peptide is cleaved at the Gly-Cys(me) bond. The fluorescence from the cleavage products is measured on a Bio-Tek Instrument FL500 fluorescence micro-plate reader (excitation at 360 nm, emission at 460 nm). […] The test compounds (at 100, 33 & 10 mM) are compared for their inhibition of HFS activity on the substrate against the activity of Actinonin and Ki's were determined on selected compounds.

[3] = test system: TNF-α; details: Phase II human trial, rheumatoid arthritis; cited from earlier work
[4] = test system: TNF-α; details: soluble receptors for TNF-α; cited from earlier work

Chain of Human neutrophil collagenase (HNC) (P22894 101-467): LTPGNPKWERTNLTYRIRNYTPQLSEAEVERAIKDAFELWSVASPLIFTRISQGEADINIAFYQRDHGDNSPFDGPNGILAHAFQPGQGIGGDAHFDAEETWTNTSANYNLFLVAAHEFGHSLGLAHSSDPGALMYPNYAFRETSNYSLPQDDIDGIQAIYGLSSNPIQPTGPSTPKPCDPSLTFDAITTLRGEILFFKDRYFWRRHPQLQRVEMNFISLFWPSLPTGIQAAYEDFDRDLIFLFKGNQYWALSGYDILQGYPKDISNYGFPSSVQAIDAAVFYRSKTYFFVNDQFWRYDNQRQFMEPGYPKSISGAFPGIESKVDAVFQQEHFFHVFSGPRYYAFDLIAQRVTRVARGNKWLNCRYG

Dnp-Pro-b-Cyclohexyl-Ala-Gly-Cys (Me)-His-Ala-Lys-(N-methylanthranilic acid)-NH2
Km [1]: 0.051 µM
Km [2]: 0.051 µM

cA2: a monoclonal antibody specific to TNF-α, cA2
swollen joint count [3]: improvement in swollen joint count

B1: TNFR-55: soluble receptors for TNF-α (protein, UniProt P19438 30-211, looked up)
extracellular domain: LVPHLGDREKRDSVCPQGKYIHPQNNSICCTKCHKGTYLYNDCPGPGQDTDCRECESGSFTASENHLRHCLSCSKCRKEMGQVEISSCTVDRDTVCGCRKNQYRHYWSENLFQCFNCSLCLNGTVHLSCQEKQNTVCTCHAGFFLRENECVSCSNCKKSLECTKLCLPQIENVKGTEDSGTT
modifications: extracellular domain
notes: soluble receptors for TNF-α
efficacy in animal models of TNF-α mediated disease states [4]: demonstrated efficacy in animal models of TNF-α mediated disease states
